Results reported in ChEMBL document CHEMBL3885861, “Open TG-GATES”.

Species: Rattus norvegicus
Experiment: Open TG-GATES - Regimen: Daily Repeat
Type: toxicity, organism-based, Sprague-Dawley
Design: regimen Daily Repeat, gender Male, age 6 weeks
Conditions: in vivo, po, 0 mg/kg, route gavage, dose level Control; for APTT / Bas / Eos / Fbg / Hb / Ht / Lym / MCH / MCHC / MCV / Mono / Neu / PT / Plat / RBC / Ret / WBC: tissue Blood; for KIDNEY_L / KIDNEY_R / KIDNEY_TOTAL: tissue Kidney; for LIVER: tissue Liver; for A/G / ALP / ALT / AST / BUN / CRE / Ca / Cl / DBIL / GLC / IP / K / LDH / Na / PL / RALB / TBIL / TC / TG / TP / gamma-GTP: tissue Plasma

CC(=O)Oc1cc(C(C)C)c(OCCN(C)C)cc1C [MOXISYLYTE]
TERMINAL_BW (72 h, time 3 day): 216.7 g | APTT (72 h, time 3 day): 21.2 s | Bas (72 h, time 3 day): 0% | Eos (72 h, time 3 day): 1% | Fbg (72 h, time 3 day): 327.4 mg/dL | Hb (72 h, time 3 day): 13.7 g/dL | Ht (72 h, time 3 day): 39.2% | Lym (72 h, time 3 day): 81.2% | MCH (72 h, time 3 day): 20.9 pg | MCHC (72 h, time 3 day): 34.9% | MCV (72 h, time 3 day): 59.9 fL | Mono (72 h, time 3 day): 2.4% | Neu (72 h, time 3 day): 14.2% | PT (72 h, time 3 day): 16.5 s | Plat (72 h, time 3 day): 116.4 x10_4/uL | RBC (72 h, time 3 day): 655.4 x10_4/ul | Ret (72 h, time 3 day): 6.2% | WBC (72 h, time 3 day): 102.1 x10_2/uL | KIDNEY_L (72 h, time 3 day): 0.9 g | KIDNEY_R (72 h, time 3 day): 1 g | KIDNEY_TOTAL (72 h, time 3 day): 1.9 g | LIVER (72 h, time 3 day): 10.3 g | A/G (72 h, time 3 day): 1.2 | ALP (72 h, time 3 day): 1472.6 IU/L | ALT (72 h, time 3 day): 42.8 IU/L | AST (72 h, time 3 day): 70.4 IU/L | BUN (72 h, time 3 day): 17.2 mg/dL | CRE (72 h, time 3 day): 0.2 mg/dL | Ca (72 h, time 3 day): 10.8 mg/dL | Cl (72 h, time 3 day): 106.6 meq/L | DBIL (72 h, time 3 day): 0.004 mg/dL | GLC (72 h, time 3 day): 181.4 mg/dL | IP (72 h, time 3 day): 7 mg/dL | K (72 h, time 3 day): 4.2 meq/L | LDH (72 h, time 3 day): 202.6 IU/L | Na (72 h, time 3 day): 142.4 meq/L | PL (72 h, time 3 day): 154.2 mg/dL | RALB (72 h, time 3 day): 3.1 g/dL | TBIL (72 h, time 3 day): 0.014 mg/dL | TC (72 h, time 3 day): 75.8 mg/dL | TG (72 h, time 3 day): 97 mg/dL | TP (72 h, time 3 day): 5.7 g/dL | gamma-GTP (72 h, time 3 day): 1 IU/L | TERMINAL_BW ([…], time 7 day): 251.3 g | TERMINAL_BW ([…], time 14 day): 305.9 g | TERMINAL_BW ([…], time 28 day): 397.2 g | APTT ([…], time 7 day): 22.9 s | Bas ([…], time 7 day): 0% | Eos ([…], time 7 day): 0.6% | Fbg ([…], time 7 day): 294.6 mg/dL | Hb ([…], time 7 day): 13.6 g/dL | Ht ([…], time 7 day): 39% | Lym ([…], time 7 day): 81.4% | MCH ([…], time 7 day): 20.7 pg | MCHC ([…], time 7 day): 34.8% | MCV ([…], time 7 day): 59.5 fL | Mono ([…], time 7 day): 2% | Neu ([…], time 7 day): 15% | PT ([…], time 7 day): 15.6 s | Plat ([…], time 7 day): 119.6 x10_4/uL | RBC ([…], time 7 day): 656.8 x10_4/ul | Ret ([…], time 7 day): 5.1% | WBC ([…], time 7 day): 75.9 x10_2/uL | APTT ([…], time 14 day): 22.6 s | Bas ([…], time 14 day): 0% | Eos ([…], time 14 day): 1% | Fbg ([…], time 14 day): 308.2 mg/dL | Hb ([…], time 14 day): 15.1 g/dL | Ht ([…], time 14 day): 41.2% | Lym ([…], time 14 day): 79.4% | MCH ([…], time 14 day): 21.6 pg | MCHC ([…], time 14 day): 36.6% | MCV ([…], time 14 day): 59 fL | Mono ([…], time 14 day): 2% | Neu ([…], time 14 day): 16.4% | PT ([…], time 14 day): 16.1 s | Plat ([…], time 14 day): 118 x10_4/uL | RBC ([…], time 14 day): 699.2 x10_4/ul | Ret ([…], time 14 day): 5% | WBC ([…], time 14 day): 125 x10_2/uL | APTT ([…], time 28 day): 24 s | Bas ([…], time 28 day): 0% | Eos ([…], time 28 day): 1% | Fbg ([…], time 28 day): 320.8 mg/dL | Hb ([…], time 28 day): 14.4 g/dL | Ht ([…], time 28 day): 40.5% | Lym ([…], time 28 day): 82.2% | MCH ([…], time 28 day): 19.4 pg | MCHC ([…], time 28 day): 35.5% | MCV ([…], time 28 day): 54.7 fL | Mono ([…], time 28 day): 1.8% | Neu ([…], time 28 day): 13.5% | PT ([…], time 28 day): 15.9 s | Plat ([…], time 28 day): 100.5 x10_4/uL | RBC ([…], time 28 day): 741 x10_4/ul | Ret ([…], time 28 day): 3.1% | WBC ([…], time 28 day): 119.2 x10_2/uL | KIDNEY_L ([…], time 7 day): 1.1 g | KIDNEY_R ([…], time 7 day): 1.1 g | KIDNEY_TOTAL ([…], time 7 day): 2.1 g | KIDNEY_L ([…], time 14 day): 1.2 g | KIDNEY_R ([…], time 14 day): 1.3 g | KIDNEY_TOTAL ([…], time 14 day): 2.5 g | KIDNEY_L ([…], time 28 day): 1.5 g | KIDNEY_R ([…], time 28 day): 1.5 g | KIDNEY_TOTAL ([…], time 28 day): 3 g | LIVER ([…], time 7 day): 11.2 g | LIVER ([…], time 14 day): 13.3 g | LIVER ([…], time 28 day): 16.3 g | A/G ([…], time 7 day): 1.3 | ALP ([…], time 7 day): 1660 IU/L | ALT ([…], time 7 day): 40.4 IU/L | AST ([…], time 7 day): 71.2 IU/L | BUN ([…], time 7 day): 18 mg/dL | CRE ([…], time 7 day): 0.2 mg/dL | Ca ([…], time 7 day): 10.7 mg/dL | Cl ([…], time 7 day): 106.6 meq/L | DBIL ([…], time 7 day): 0 mg/dL | GLC ([…], time 7 day): 189.2 mg/dL | IP ([…], time 7 day): 6.7 mg/dL | K ([…], time 7 day): 4.1 meq/L | LDH ([…], time 7 day): 219.2 IU/L | Na ([…], time 7 day): 142.6 meq/L | PL ([…], time 7 day): 155.2 mg/dL | RALB ([…], time 7 day): 3 g/dL | TBIL ([…], time 7 day): 0.004 mg/dL | TC ([…], time 7 day): 72.2 mg/dL | TG ([…], time 7 day): 138 mg/dL | TP ([…], time 7 day): 5.4 g/dL | gamma-GTP ([…], time 7 day): 1.4 IU/L | A/G ([…], time 14 day): 1.1 | ALP ([…], time 14 day): 1709.2 IU/L | ALT ([…], time 14 day): 40 IU/L | AST ([…], time 14 day): 71.4 IU/L | BUN ([…], time 14 day): 20 mg/dL | CRE ([…], time 14 day): 0.2 mg/dL | Ca ([…], time 14 day): 10.7 mg/dL | Cl ([…], time 14 day): 106.2 meq/L | DBIL ([…], time 14 day): 0 mg/dL | GLC ([…], time 14 day): 197.6 mg/dL | IP ([…], time 14 day): 6 mg/dL | K ([…], time 14 day): 4.2 meq/L | LDH ([…], time 14 day): 170.8 IU/L | Na ([…], time 14 day): 141.4 meq/L | PL ([…], time 14 day): 148.4 mg/dL | RALB ([…], time 14 day): 3.1 g/dL | TBIL ([…], time 14 day): 0.008 mg/dL | TC ([…], time 14 day): 75.4 mg/dL | TG ([…], time 14 day): 114.6 mg/dL | TP ([…], time 14 day): 5.7 g/dL | gamma-GTP ([…], time 14 day): 1.4 IU/L | A/G ([…], time 28 day): 1.1 | ALP ([…], time 28 day): 1031.5 IU/L | ALT ([…], time 28 day): 47.5 IU/L | AST ([…], time 28 day): 81.5 IU/L | BUN ([…], time 28 day): 17.5 mg/dL | CRE ([…], time 28 day): 0.2 mg/dL | Ca ([…], time 28 day): 10.3 mg/dL | Cl ([…], time 28 day): 104.5 meq/L | DBIL ([…], time 28 day): 0.0025 mg/dL | GLC ([…], time 28 day): 201.5 mg/dL | IP ([…], time 28 day): 6.9 mg/dL | K ([…], time 28 day): 4.1 meq/L | LDH ([…], time 28 day): 261 IU/L | Na ([…], time 28 day): 141 meq/L | PL ([…], time 28 day): 134.2 mg/dL | RALB ([…], time 28 day): 3 g/dL | TBIL ([…], time 28 day): 0.0025 mg/dL | TC ([…], time 28 day): 64.5 mg/dL | TG ([…], time 28 day): 116.5 mg/dL | TP ([…], time 28 day): 5.9 g/dL | gamma-GTP ([…], time 28 day): 1.5 IU/L
